# Data: US20070259966A1, “Coadministration of Radiation, Efaproxiral Sodium, and Supplemental Oxygen for the Treatment of Cancer” (ALLOS THERAPEUTICS, INC., priority 2004, published 2007)
# Legend:
# [1] = test system: patients with brain metastases; experiment: Safety / treatment-emergent adverse events in the controlled study; assay type: in vivo, human
# Protocol: Depending upon an individual patient's resaturation time (time required to recover to a stable ≧90% SpO2 on room air) following efaproxiral sodium plus WBRT, supplemental oxygen use may be required for as little as 30 minutes to more than 4 hours. […] During this period of decreased oxygen saturation, patients require continuous SpO2 monitoring. If the desired SpO2 of ≧90% while breathing room air is not achieved, supplemental oxygen is to be continued and increased to a flow of 6-8 L/min, if necessary, until the SpO2 while breathing room air is stabilized at ≧90%.
# Patients with brain metastases were administered efaproxiral sodium in a total dose of 0-100 mg/kg per day based on the dosing guidelines detailed above. In general, efaproxiral sodium is administered by intravenous infusion through a central venous access device over 30 minutes at a dose of 75 or 100 mg/kg daily with concurrent supplemental oxygen. Oxygen must be administered at 4 L/min via nasal cannula or facemask beginning 5 minutes prior to initiation of infusion, during infusion and WBRT, and for at least 15 minutes after completion of daily WBRT. Efaproxiral sodium is administered every day of a fractionated course of WBRT. Except when contraindicated, WBRT must be administered within 30 minutes of the end of the efaproxiral sodium infusion.
# The patients were given the drug in one dose. Efaproxiral sodium was administered via central venous access with flow rate controlled by volumetric pump over a 30-45 minute interval with end-infusion no longer than 30 minutes prior to each radiation dose of a 10-day course of WBRT. Efaproxiral sodium was formulated as a sterile solution for injection and was supplied in single-use glass bottles containing 10 g efaproxiral sodium in 500 mL of 0.225% NaCl at a concentration of 20 mg/mL. Efaproxiral sodium was administered during the 10-day course of WBRT, for a maximum of 10 doses. A control group received radiation and supplemental oxygen only.
# The majority of treatment-emergent adverse events were Grade 1 or 2 in severity, resolved spontaneously or within the duration of the study, and responded well to concomitant treatment with antiemetics for nausea/vomiting, nonsteroidal anti-inflammatory drugs for headache, supplemental oxygen for hypoxemia. […] Muscle weakness and dyspnea (reported in 3% of patients) were the most commonly reported Grade 3 adverse events in Control patients and both events were reported as a Grade 4 event in 1 patient each. The most commonly reported Grade 4 adverse event in both treatment and control groups was disease progression (reported in 6% of both groups).
# [2] = Plasma and red blood cell (RBC) drug concentration; assay type: in vivo, human
# Protocol: (§1) Plasma and red blood cell (RBC) drug concentration were assayed on 2 days during the course of efaproxiral sodium administration: WBRT day 1 (end-infusion) and on 1 single day between WBRT days 6 and 10 (pre-infusion and end-infusion assays). Regression analysis was used to explore the relationship between trough and peak concentrations and continuous clinical covariates (eg, age, serum albumin, hematocrit, serum creatinine, etc). […] A dose of efaproxiral sodium was considered predicatably therapeutic if it achieved a sufficient RBC concentration (>483 μg/ml), and corresponded to a predicted p50 shift of 10 mmHg.
# [3] = test system: patients with brain metastases; experiment: Quality of life: Karnofsky Performance Status (KPS); assay type: in vivo, human
# Protocol: (§2) C. Quality of Life. Quality of life was determined by means of the Spitzer Questionnaire (SQ) and Karnofsky Performance Status (KPS) assessment. The tests were performed at baseline, at WBRT day 10, and at all routine follow-up visits. A sustained drop in the KPS score to less than 60 was defined as a significant drop. The 5 questions comprising the Spitzer Questionnaire were weighted evenly. For each evaluation with at least 3 out of 5 questions answered, an average score was computed for each patient. Questionnaires with fewer than 3 questions answered were treated as missing data. The protocol specified a sustained drop in the Spitzer Questionnaire score of 2 points constituted a significant drop.
# [4] = test system: patients with brain metastases; experiment: Quality of life: Spitzer Questionnaire (SQ); assay type: in vivo, human
# Protocol: as §2
# [5] = target: T1, hemoglobin (Homo sapiens, UniProt P68871+P69905); experiment: Predicted p50 shift from RBC concentration; assay type: in vivo; settings: at RBC concentration >483 μg/ml
# T1 construct: endogenous in cells; host or cells: red blood cells of treated patients (in vivo)
# Protocol: Sometimes, efaproxiral sodium is represented by the name 2-[4-[2-[(3,5-dimethylphenyl)amino]-2-oxoethyl]phenoxy]-2-methylpropanoic acid. In general efaproxiral sodium is administered as a physiologically acceptable salt, such as the monosodium salt; that is, X+ is Na+. Efaproxiral sodium induces allosteric modification of hemoglobin, such that its binding affinity for oxygen is decreased, resulting in increased oxygen distribution to tissues by erythrocytes.
# as §1
# T1 sequence (P69905 2-142 limits assumed): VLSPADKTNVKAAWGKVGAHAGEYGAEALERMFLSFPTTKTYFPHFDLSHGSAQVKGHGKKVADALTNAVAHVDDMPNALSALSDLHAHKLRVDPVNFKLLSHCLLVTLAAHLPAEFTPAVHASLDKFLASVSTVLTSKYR
# T1 sequence (P68871 2-147 limits assumed): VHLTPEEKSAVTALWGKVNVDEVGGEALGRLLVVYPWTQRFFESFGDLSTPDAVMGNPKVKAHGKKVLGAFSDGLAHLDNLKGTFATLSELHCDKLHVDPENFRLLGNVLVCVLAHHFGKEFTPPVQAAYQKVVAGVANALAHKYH
structure (smiles),measurement,setting,value
"Cc1cc(C)cc(NC(=O)Cc2ccc(OC(C)(C)C(=O)O)cc2)c1 [efaproxiral sodium, 2-[4-(((3,5-dimethylanilino)carbonyl)methyl)phenoxy]-2-methylpropionic acid]",Grade 4 hypoxemia,[1]; in vivo,no Grade 4 hypoxemia was reported
same,severity of the majority of treatment-emergent adverse events,[1]; in vivo,Grade 1 or 2
same,duration of supplemental oxygen required after completion of WBRT,"[1]; majority of doses, patients with brain metastases from breast cancer",one hour or less
same,"Grade 3 hypoxemia, patients reporting",[1]; most commonly reported Grade 3 adverse event,11%
same,"Grade 4 disease progression, patients reporting",[1]; most commonly reported Grade 4 adverse event,6%
same,drug accumulation in RBCs,[2]; WBRT week 2 preinfusion concentrations,No clinically relevant drug accumulation
same,"concentrations in RBCs, higher body weight versus low weight patients",[2]; at a given dose,higher
same,"concentrations in RBCs, breast primary versus NSCLC and other primary patients",[2]; in vivo,higher
same,change of concentrations in RBCs with dose,[2]; patients dosed at 75 or 100 mg/kg,proportional increase
same,"patients with stable or improving KPS scores, (%)",[3]; 1 month,(44) %
same,"patients with stable or improving KPS scores, (%)",[3]; 3 months,(24) %
same,"patients with stable or improving KPS scores, (%)",[3]; 6 months,(18) %
same,"patients with stable or improving KPS scores, (%)",[3]; 12 months,(7) %
same,distribution of KPS score categories between treatment groups,"[3]; breast primary, 6 months and 1 year (p=0.0046 and p=0.0070)",statistically significant difference
same,percentage of patients with stable or improving KPS scores over time versus Control,"[3]; χ2=9.0096, p=0.0027",highly statistically significant
same,"patients with stable or improving SQ scores, (%)",[4]; 1 month,(42) %
same,"patients with stable or improving SQ scores, (%)",[4]; 3 months,(23) %
same,"patients with stable or improving SQ scores, (%)",[4]; 6 months,(16) %
same,"patients with stable or improving SQ scores, (%)",[4]; 12 months,(9) %
same,percentage of patients with stable or improving SQ scores over time versus Control,"[4]; χ2=3.4675, p=0.0626",trend toward a higher percentage
same,predicted p50 shift,[5],10 mmHg
